Measured values as given in paper PMC3449313 (Peptides, 2012).

Experiments:
[1] = test system: D. melanogaster adult gut; experiment: adult gut contraction; format: in vivo, Drosophila melanogaster; conditions: 0.1 nM; without PI; relative to the effect of DMS; mean
[2] = test system: D. melanogaster pupal heart (white prepupae); format: in vivo, Drosophila melanogaster; conditions: 1 uM; without PI; relative to the effect of DMS; mean

VFLRFamide [[6-10]DMS]
% Inhibition Adult gut (without protease inhibitor) [1]: 78%
% Inhibition Pupal heart (without protease inhibitor) [2]: 103%
